Measurements from PubChem BioAssay AID1845219 (Molecular Pharmacology Branch, DTP, NCI, 2023).

Test system: SYO-1 tumor spheroids, viability % test/control
Test: Anticancer human tumor SYO-1 cell line growth inhibition;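 further: spheroids exposed to agents for 7 days before viability read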;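 on viability, T/C: 100% = DMSO vehicle control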
Conditions: spheroids with HUVEC and MSC; for IC50: curve of first compound; for viability, T/C: stronger effect = lower value
Procedure, shortened: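 Single agents and combinations were tested on spheroids built from tumor cells plus HUVEC and hMSC, at half-log dilutions starting at or near clinical Cmax, else 10 microM; final DMSO 0.25% (v/v).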

Compound `COc1cc(C)[nH]c(=O)c1CN1CCc2c(Cl)cc(C(OC)C3COC3)c(Cl)c2C1=O` (stereo not given) + COc1cc2c(cc1O)CCNC21CSC2c3c(OC(C)=O)c(C)c4c(c3C(COC1=O)N1C(O)C3Cc5cc(C)c(OC)c(O)c5C(C21)N3C)OCO4 has an IC50 (second compound 30 pM) of 1490 nM, an IC50 (second compound 94.9 pM) of 198 nM and an IC50 (second compound 0.0003 µM) of under 31.6 nM. The IC50 (second compound 0.000949 µM) was under 31.6 nM, the IC50 (second compound 0.003 µM) was under 31.6 nM and the viability, T/C (second compound 30 pM, first compound 0.0316 µM) was 104%. The viability, T/C (second compound 30 pM, first compound 0.1 µM) was 104%, the viability, T/C (second compound 30 pM, first compound 0.316 µM) was 79.3% and the viability, T/C (second compound 30 pM, first compound 1 µM) was 55.3%. For the same compound, the viability, T/C (second compound 30 pM, first compound 3.16 µM) was 42.5%, the viability, T/C (second compound 30 pM, first compound 10 µM) was 40.5% and the viability, T/C (second compound 94.9 pM, first compound 0.0316 µM) was 94%. It also gave a viability, T/C (second compound 94.9 pM, first compound 0.1 µM) of 65.8%, a viability, T/C (second compound 94.9 pM, first compound 0.316 µM) of 39.9% and a viability, T/C (second compound 94.9 pM, first compound 1 µM) of 20.9%. For the same compound, the viability, T/C (second compound 94.9 pM, first compound 3.16 µM) was 16.5%, the viability, T/C (second compound 94.9 pM, first compound 10 µM) was 11.5% and the viability, T/C (second compound 0.0003 µM, first compound 0.0316 µM) was 6.74%. The viability, T/C (second compound 0.0003 µM, first compound 0.1 µM) was 4%, the viability, T/C (second compound 0.0003 µM, first compound 0.316 µM) was 3.76% and the viability, T/C (second compound 0.0003 µM, first compound 1 µM) was 3.14%. For the same compound, the viability, T/C (second compound 0.0003 µM, first compound 3.16 µM) was 2.73%, the viability, T/C (second compound 0.0003 µM, first compound 10 µM) was 2.74% and the viability, T/C (second compound 0.000949 µM, first compound 0.0316 µM) was 0.89%. It also gave a viability, T/C (second compound 0.000949 µM, first compound 0.1 µM) of 0.96%, a viability, T/C (second compound 0.000949 µM, first compound 0.316 µM) of 0.72% and a viability, T/C (second compound 0.000949 µM, first compound 1 µM) of 0.67%. It also gave a viability, T/C (second compound 0.000949 µM, first compound 3.16 µM) of 0.86%, a viability, T/C (second compound 0.000949 µM, first compound 10 µM) of 0.76% and a viability, T/C (second compound 0.003 µM, first compound 0.0316 µM) of 0.11%. It also gave a viability, T/C (second compound 0.003 µM, first compound 0.1 µM) of 0.09%, a viability, T/C (second compound 0.003 µM, first compound 0.316 µM) of 0.1% and a viability, T/C (second compound 0.003 µM, first compound 1 µM) of 0.11%. It also gave a viability, T/C (second compound 0.003 µM, first compound 3.16 µM) of 0.11% and a viability, T/C (second compound 0.003 µM, first compound 10 µM) of 0.17%.
For `CNCc1ccc(-c2cc(-c3nc(-c4ccc(S(=O)(=O)C(C)C)cc4)cnc3N)on2)cc1` + Cn1nnc2c(C(N)=O)ncn2c1=O, the IC50 (second compound 1 µM) was 145 nM, the IC50 (second compound 3.16 µM) was 163 nM and the IC50 (second compound 10 µM) was 147 nM. The IC50 (second compound 31.6 µM) was 80.8 nM, the IC50 (second compound 100 µM) was 47.6 nM and the viability, T/C (second compound 1 µM, first compound 0.00949 µM) was 105%. It also gave a viability, T/C (second compound 1 µM, first compound 0.03 µM) of 98.7%, a viability, T/C (second compound 1 µM, first compound 0.0949 µM) of 77.6% and a viability, T/C (second compound 1 µM, first compound 0.3 µM) of 2.58%. It also gave a viability, T/C (second compound 1 µM, first compound 0.949 µM) of 0.22%, a viability, T/C (second compound 1 µM, first compound 3 µM) of 0.09% and a viability, T/C (second compound 3.16 µM, first compound 0.00949 µM) of 105%. It also gave a viability, T/C (second compound 3.16 µM, first compound 0.03 µM) of 103%, a viability, T/C (second compound 3.16 µM, first compound 0.0949 µM) of 91.6% and a viability, T/C (second compound 3.16 µM, first compound 0.3 µM) of 2.75%. It also gave a viability, T/C (second compound 3.16 µM, first compound 0.949 µM) of 0.12%, a viability, T/C (second compound 3.16 µM, first compound 3 µM) of 0.09% and a viability, T/C (second compound 10 µM, first compound 0.00949 µM) of 107%. For the same compound, the viability, T/C (second compound 10 µM, first compound 0.03 µM) was 99%, the viability, T/C (second compound 10 µM, first compound 0.0949 µM) was 79.6% and the viability, T/C (second compound 10 µM, first compound 0.3 µM) was 1.77%. For the same compound, the viability, T/C (second compound 10 µM, first compound 0.949 µM) was 0.13%, the viability, T/C (second compound 10 µM, first compound 3 µM) was 0.1% and the viability, T/C (second compound 31.6 µM, first compound 0.00949 µM) was 111%. For the same compound, the viability, T/C (second compound 31.6 µM, first compound 0.03 µM) was 106%, the viability, T/C (second compound 31.6 µM, first compound 0.0949 µM) was 40.9% and the viability, T/C (second compound 31.6 µM, first compound 0.3 µM) was 1.76%. The viability, T/C (second compound 31.6 µM, first compound 0.949 µM) was 0.23%, the viability, T/C (second compound 31.6 µM, first compound 3 µM) was 0.11% and the viability, T/C (second compound 100 µM, first compound 0.00949 µM) was 107%. For the same compound, the viability, T/C (second compound 100 µM, first compound 0.03 µM) was 77.2%, the viability, T/C (second compound 100 µM, first compound 0.0949 µM) was 9.17% and the viability, T/C (second compound 100 µM, first compound 0.3 µM) was 1.95%. It also gave a viability, T/C (second compound 100 µM, first compound 0.949 µM) of 0.23% and a viability, T/C (second compound 100 µM, first compound 3 µM) of 0.18%.
